Consider 12 molecules from PMC10525445, “Antitrypanosomal Activity of 1,2,3-Triazole-Based Hybrids Evaluated Using In Vitro Preclinical Translational Models” (Biology, 2023).

Read-outs that look alike come from different tables or passages of the source.

Data set [1] deals with trypomastigote forms of T. cruzi (Dm28c-Luc). The data set is described as follows: Trypanocidal activity against trypomastigotes (luciferase luminescence, 24 h). Type of data set: cell-based, Trypanosoma cruzi. The conditions noted are these: for IC50 / IC90: Trypanosoma cruzi, Dm28c-Luc, 24 h. How it is done:
(§1) A drug screen was carried out with Trypanosoma cruzi clone Dm28c genetically modified to express luciferase (Dm28c-luc), kindly provided by Dr. Cristina Henriques. The genetically modified T. cruzi clone Dm28c (Dm28c-Luc) has the firefly luciferase gene integrated into the genome, stably expressing the luminescent enzyme. The bioluminescent signal, proportional to the number of parasites, is produced by adding a D-luciferin substrate. Trypomastigotes were harvested from supernatants of VERO cell cultures, infected at a ratio of 10:1 parasite/host cells, 4 days post-infection (4 dpi). Parasites were used for phenotypic drug screening procedures. Luminescent parasites are a reliable and sensitive tool that allows precise quantification of parasite load. The use of genetically modified organisms was approved under license CQB 105/99.
All triazole analogs were analyzed for their biological activity against trypomastigote and intracellular amastigote forms of T. cruzi (Dm28c-Luc). Trypomastigotes (1.0 × 10^6 parasites/well) were incubated for 24 h at 37 °C with triazole derivatives and Bz at concentrations ranging from 0.04 to 100 µM. Luciferin (300 µg/mL), a luciferase substrate, was added to parasite suspensions to evaluate trypomastigotes viability. The luminescent signal was measured using a Glomax microplate reader. A maximal DMSO concentration (0.1%) was used as the negative control. The inhibitory concentration 50 (IC50) and 90 (IC90) against T. cruzi, which reduces the number of parasites by 50% and 90%, respectively, was calculated using linear regression. The selectivity index (SI), a ratio that measures the window between toxicity in mammalian cells and anti-T. cruzi activity (SI = CC50/IC50), was also determined.

The subject of data set [2] is intracellular amastigote forms of T. cruzi (Dm28c-Luc). The data set is described as follows: Activity against intracellular amastigotes in infected VERO cells (72 h). The format is cell-based, Trypanosoma cruzi. Particulars: for IC50 / IC90: Trypanosoma cruzi, infected VERO cells, 72 h, mean ± SD; for IC50: read-out: Trypanocidal Activity Intracellular Amastigotes IC50; for Intracellular Amastigotes SI: SI = CC50 of VERO cells/IC50 of intracellular amastigotes; for IC90: read-out: Trypanocidal Activity Intracellular Amastigotes IC90. How it is done:
as §1
Activity against intracellular amastigotes was determined in cultures of VERO cells infected by T. cruzi (24 h), as previously described. Briefly, infected cultures were treated for 72 h at 37 °C with different concentrations of triazole derivatives (0.04–100 µM). Then, the culture supernatant was removed, and the viability of the intracellular parasites was evaluated after adding luciferin (300 µg/mL) to the cell monolayer followed by reading using the microplate reader. Anti-T. cruzi activity (IC50 and IC90) and SI values were determined. All experimental assays were performed at least 3 times in duplicate.

A short description of data set [3]: Cytotoxicity on VERO cell monolayers (CellTiter Glo, 72 h). Type of data set: cell-based. The conditions noted are these: African green monkey, VERO cell monolayers, ATP level, read-out: Cytotoxicity VERO Cells CC50. How it is done:
VERO cells (Rio de Janeiro Cell Bank code 0245) were cultivated in RPMI 1640 medium supplemented with 10% fetal bovine serum (FBS) at 37 °C in a humidified atmosphere of 5% CO2. Confluent monolayers were dissociated with trypsin-EDTA solution (0.025%), and isolated cells were seeded on culture plates or flasks, depending on the experimental assay. The VERO cell cultures were used in cytotoxicity and phenotypic screening assays and for obtaining culture-derived trypomastigotes. The toxic effect of the triazole series was evaluated on VERO cell monolayers. After seeding for 24 hours, VERO cells were treated for 72 h at 37 °C with the 1,2,3-triazole derivatives and Bz, the reference drug, with a range of concentration from 15.62 to 500 µM. Controls were performed with a non-toxic concentration of dimethyl sulfoxide (DMSO; ≤0.1%) used in the experimental assays. Cell viability was determined by measuring ATP level using a CellTiter Glo kit. The luminescence read was performed using a Glomax microplate reader (Promega Corporation, Madison, WI, EUA). The cytotoxicity concentration 50 (CC50), the drug concentration that reduces cell viability by 50%, was calculated using linear regression. […] Cultures were exposed for 72 h to compound concentrations up to 500 µM, following the protocol mentioned above. At least 3 independent assays were performed in duplicate.

Data set [4] has as its system T. cruzi (Dm28c-Luc)-infected VERO cells. The data set is described as follows: Short-term washout assay (3 days treatment, 3 days without compound). Type of data set: cell-based, Trypanosoma cruzi. The conditions noted are these: 100 µM. How it is done: (§2) A washout assay was performed to evaluate the capacity of the promising candidates to eliminate all parasites. Thus, VERO cells, seeded in 96-well plates at a density of 1.5 × 10^4 cells/well, were infected with T. cruzi (Dm28c-Luc) at a 10:1 parasite–host cell ratio (24 h). Two treatment schedules were performed: 3 days with 30, 50, and 100 µM concentrations and 10 days with 30 and 60 times the IC50 concentrations. After treatment, the cultures were washed with PBS and kept for the same period in RPMI 1640 medium supplemented with 10% FBS without compound pressure. The culture medium was changed every 3 or 4 days during the time course, and the supernatant was harvested for luminescence reading after luciferin (300 µg/mL) addition. At the endpoint, the monolayers were also evaluated for parasite load. The luminescent signal was read using a Glomax reader. Bz (100 µM) and DMSO (≤1%) were used as positive and negative controls, respectively.

For data set [5] the test system is unchanged. The data set is described as follows: Long-term washout assay (10 days treatment, 10 days without compound). The format is cell-based, Trypanosoma cruzi. Particulars: 10 days treatment (30 or 60 times IC50; Bz 100 µM) + 10 days without compound. How it is done:
as §2

In data set [6] the test system is VERO cells infected with Silvio X10/7. Further details: method as in PMID 30001347. Particulars: cited from earlier work.
The mark [7] stands for this setting: mean ± SD, read-out: Trypanocidal Activity Trypomastigotes IC50.

`COc1ccc(-n2cc(CO)nn2)cc1` [Triazole 1n, (1-(4-Methoxyphenyl)-1H-1,2,3-triazole-4-yl)methanol]: the IC50 in data set [1] (setting [7]) and in data set [2] was greater than 100 µM in each case. Moreover, the half-maximal cytotoxic concentration (CC50) at 72 h in data set [3] was greater than 500 µM.
For `O=[N+]([O-])c1ccc(-n2cc(C3(O)CCCCC3)nn2)cc1` [Triazole 1i, 1-(1-(4-Nitrophenyl)-1H-1,2,3-triazole-4-yl)cyclohexan-1-ol], the IC50 in data set [1] (setting [7]) and in data set [2] was greater than 100 µM throughout. Besides, in data set [3], the CC50 at 72 h was greater than 500 µM.
As for `O=C(Cn1ccnc1[N+](=O)[O-])NCc1ccccc1` [Bz, benznidazole, reference compound], the 90% effect concentration (IC90) in data set [1] (mean ± SD) is greater than 100 µM; in data set [2], 21.7 ± 2.37 µM. The results for the IC50 in data set [1] (setting [7]), in data set [1] (read-out: pIC50 against trypomastigotes (converted)) and in data set [2] were 22.8 ± 4.12 µM, 22.9 µM and 4.67 ± 0.22 µM, respectively. In data set [2], the “Intracellular Amastigotes SI” value was greater than 107. For the same molecule, the CC50 at 72 h in data set [3] was greater than 500 µM. For the same molecule, the “effect on parasite load / infection progression” value in data set [4] is recorded as “potentially inhibited the infection progression”. Moreover, the “infection reactivation / sterile cure” value in data set [5] was “failed to induce a sterile cure”. Further, in data set [6] (12.5 to 50 times EC50 for 8 days), the relapse entry is given as “did not prevent relapse”. The recrudescence result in data set [6] (16 days of treatment with 25 to 50 times EC50, followed for 60 days) was “lack of recrudescence”.
`O=C(OCc1cn(-c2ccccc2Cl)nn1)c1ccccc1` [Triazole 1l, (1-(2-Chlorophenyl)-1H-1,2,3-triazole-4-yl)methyl benzoate]: the “Trypomastigotes SI” value in data set [1] (SI = CC50 of VERO cells/IC50 of trypomastigotes) amounted to 2.94. In data set [1] (mean ± SD), this molecule came in with an IC90 greater than 100 µM. For the same molecule, the IC50 in data set [1] (setting [7]) turned out to be 80.4 ± 3.56 µM. In addition, in data set [2], the “Intracellular Amastigotes SI” value was determined as 3.03, the IC50 turned out to be 77.9 ± 2 µM and the IC90 was greater than 100 µM. In addition, the 50% cytotoxic concentration (CC50) at 72 h in data set [3] turned out to be 236 ± 17.9 µM.
In the case of `Brc1ccc(-n2cc(-c3ccccc3)nn2)cc1` [Triazole 1c, 1-(4-Bromophenyl)-4-phenyl-1H-1,2,3-triazole], the IC90 in data set [1] (mean ± SD) was greater than 100 µM. The IC50 in data set [1] (setting [7]) and in data set [2] was greater than 100 µM throughout. Also, in data set [3], the CC50 at 72 h is greater than 500 µM.
Regarding `OC1(c2cn(-c3ccccc3)nn2)CCCCC1` [Triazole 1h, 1-(1-Phenyl-1H-1,2,3-triazole-4-yl)cyclohexan-1-ol], the IC50 in data set [1] (setting [7]) and in data set [2] was greater than 100 µM throughout. Moreover, in data set [3], the 50% cytotoxic concentration (CC50) at 72 h is greater than 500 µM.
With `Cc1ccccc1-n1cc(COC(=O)c2ccccc2)nn1` [Triazole 1m, (1-(o-Tolyl)-1H-1,2,3-triazole-4-yl)methyl benzoate], the IC50 in data set [1] (setting [7]) and in data set [2] was greater than 100 µM each time. Besides, the CC50 at 72 h in data set [3] is greater than 500 µM.
Regarding `Clc1ccc(-n2cc(-c3ccccc3)nn2)cc1` [Triazole 1b, 1-(4-Chlorophenyl)-4-phenyl-1H-1,2,3-triazole], the IC90 in data set [1] (mean ± SD) was greater than 100 µM. Also, the IC50 in data set [1] (setting [7]) and in data set [2] was greater than 100 µM each time. Moreover, the CC50 at 72 h in data set [3] is greater than 500 µM.
Turning to `COc1ccc(-n2cc(C3(O)CCCCC3)nn2)cc1` [Triazole 1j, 1-(1-(4-Methoxyphenyl)-1H-1,2,3-triazole-4-yl)cyclohexan-1-ol], the IC50 in data set [1] (setting [7]) and in data set [2] was greater than 100 µM in each case. For the same molecule, the CC50 at 72 h in data set [3] is greater than 500 µM.
With `Cc1ccccc1-n1cc(C(C)(C)O)nn1` [Triazole 1a, 2-(1-(o-Tolyl)-1H-1,2,3-triazole-4-yl)propan-2-ol], in data set [1] (mean ± SD), the IC90 was greater than 100 µM. Further, the IC50 in data set [1] (setting [7]) and in data set [2] was greater than 100 µM each time. Further, in data set [3], the CC50 at 72 h is greater than 500 µM.
Molecule `c1ccc(Cn2cc(-c3ccccc3)nn2)cc1` [Triazole 1e, 1-Benzyl-4-phenyl-1H-1,2,3-triazole] displayed a 90% effect concentration (IC90) in data set [1] (mean ± SD) greater than 100 µM. The IC50 in data set [1] (setting [7]) is greater than 100 µM. In data set [2], the “Intracellular Amastigotes SI” value is greater than 6 and the IC50 stood at 83.2 ± 2.27 µM. Besides, the CC50 at 72 h in data set [3] is greater than 500 µM.
Consider `Cc1ccccc1-n1cc(C2(O)CCCCC2)nn1` [Triazole 1k, 1-(1-(o-Tolyl)-1H-1,2,3-triazole-4-yl)cyclohexan-1-ol], for which the melting point lay in the range of 201 to 203 °C. The IC50 in data set [1] (setting [7]) is greater than 100 µM. Besides, the IC50 in data set [2] is greater than 100 µM. Besides, the CC50 at 72 h in data set [3] is greater than 500 µM.
